Assay results from ChEMBL document CHEMBL1149974, “New Oligosaccharidic Crown Ethers as Potential Drug-Targetting Vectors: Synthesis & Biological Evaluation” (1994).
In brackets after ≈: the same amount, converted by molar mass.

Tested on: Saccharomyces cerevisiae
Assay: Minimum inhibitory concentration required for in vitro inhibition of flocculation against cell wall galactose-specific yeast lectin (KbCWL)
Assay type: functional

Molecule | MIC [µM]
CO[C@H]1O[C@@H](C)[C@@H](O[C@@H]2O[C@@H](CO)[C@@H](O[C@@H]3O[C@@H](CO)[C@H](O)[C@H](O)[C@@H]3O)[C@H](O)[C@@H]2O)[C@@H]2OCCOCCOc3ccccc3OCCOCCO[C@H]12 | 3000 (≈ 2260 µg/mL)
CO[C@@H]1O[C@H](CO)[C@H](O)[C@H](O)[C@H]1O | 1750 (≈ 340 µg/mL)
CO[C@H]1O[C@@H](C)[C@@H](O[C@@H]2O[C@@H](CO)[C@H](O)C(O)[C@@H]2O)C2OCCOCCOc3ccccc3OCCOCCO[C@@H]21 (single isomer, unassigned) | 2650 (≈ 1570 µg/mL)
O=C[C@H](O)[C@@H](O)[C@@H](O)[C@H](O)CO [GALACTOSE] | 3500 (≈ 631 µg/mL)
LACTOSE, ANHYDROUS | 1250
